Paper PMC11666819, “Isolation, Structure Elucidation, and Bioactivity Evaluation of Two Alkaloids From Piper chaba H. Stem: A Traditional Medicinal Spice and Its Chemico‐Pharmacological Aspects” (Food Science & Nutrition, 2024)
Where “and” joins values, the source holds several entries; their conditions need not be identical. Identical values can stand only once.

Legend:
[1] = system: acetic acid‐induced writhing; experiment: Acetic acid‐induced writhing test; type: in vivo, Swiss albino mice; settings: mice; for Number of writhing: mean
Description: (§1) To carry out the in vivo experiment, Swiss albino mice aged between 4 and 5 weeks, of both genders, were obtained from the Animal Resource Branch of the International Centre for Diarrheal Diseases and Research, Bangladesh (ICDDR, B) (the size of the animal population, n = 5). The mice were housed in standard polypropylene cages with a 12‐h light–dark cycle. Additionally, optimal conditions such as a controlled room temperature of 24°C ± 2°C and a relative humidity of 60%–70% were upheld. They were provided with ICDDR, B‐formulated rodent food, and water ad libitum. The research protocol was approved by the Animal Ethics Committee of the State University of Bangladesh, Dhaka (2023‐01‐04/SUB/A‐ ERC/003) before initiating the study. Throughout the experiments, strict adherence to guidelines for the use and care of laboratory animals was ensured. Recognizing the sensitivity of mice to environmental variations, they were acclimatized to the experimental conditions for a minimum of 3–4 days before the commencement of the experiment. Furthermore, all ethical protocols and regulations were strictly adhered to during the design and execution of the research experiments. At the end of the experiment, an anesthesia overdose (Ketamine HCl [100 mg/kg] and Xylazine [7.5 mg/kg]) through the intraperitoneal route was given to the mice models followed by euthanasia, following the previously delineated protocols established by Zimmermann ([1983]) and Davis ([2001]) (Alam et al. [2021]; Davis [2001]; Zimmermann [1983]). All tests were carried out in abiding with the guidelines for the care and use of laboratory animals, as approved by the institutional ethical committee.
The analgesic efficacy of the isolated compounds, Chabamide I and Chingchengenamide A, was assessed utilizing the acetic acid‐induced writhing test, following the methodology outlined by Ahmad et al. ([2010]). […] Conversely, Groups III and IV received individual alkaloids at doses of 10 and 20 mg/kg; b.w, p.o., respectively. Subsequently, an intraperitoneal injection of acetic acid solution (0.6% v/v) was administered. The frequency of writhing responses was meticulously recorded at 5‐min intervals post‐acetic acid injection and monitored over 25 min.

[2] = system: Escherichia coli [ATCC25922]; experiment: Disk diffusion test; type: cell-based; settings: for Zone of Inhibition: standards 30 μg/disk; for zone of inhibition at 100 µg/disc: ATCC25922
[3] = system: Vibrio parahemolyticus [clinical isolates]; experiment: Disk diffusion test; type: cell-based; settings: for Zone of Inhibition: Vibrio parahemolyticus, standards 30 μg/disk; for zone of inhibition at 100 µg/disc: Vibrio
[4] = system: Bacillus cereus [clinical isolates]; experiment: Disk diffusion test; type: cell-based
[5] = system: Salmonella typhi [clinical isolates]; experiment: Disk diffusion test; type: cell-based; settings: for Zone of Inhibition: Salmonella typhi; for zone of inhibition at 100 µg/disc: Salmonella enterica, TYPHI
[6] = system: Salmonella paratyphi [clinical isolates]; experiment: microbe, parasite or virus in culture; type: cell-based; settings: for Zone of Inhibition: Salmonella paratyphi, standards 30 μg/disk; for zone of inhibition at 100 µg/disc: Salmonella enterica, PARATYPHI
[7] = system: Pseudomonas aeruginosa [ATCC27833]; experiment: Disk diffusion test; type: cell-based; settings: for zone of inhibition at 100 µg/disc: ATCC27833
[8] = system: Bacillus subtilis [ATCC6633]; experiment: Disk diffusion test; type: cell-based; settings: for Zone of Inhibition: standards 30 μg/disk; for zone of inhibition at 100 µg/disc: ATCC6633
[9] = system: Shigella dysenteriae [clinical isolates]; experiment: Disk diffusion test; type: cell-based; settings: for Zone of Inhibition: standards 30 μg/disk
[10] = system: Staphylococcus aureus [ATCC25923]; experiment: Disk diffusion test; type: cell-based; settings: for Zone of Inhibition: standards 30 μg/disk; for zone of inhibition at 100 µg/disc: ATCC25923
[11] = system: Vibrio mimicus [clinical isolates]; experiment: Disk diffusion test; type: cell-based; settings: for Zone of Inhibition: standards 30 μg/disk
[12] = system: Bacillus megaterium [ATCC 25918]; experiment: Disk diffusion test; type: cell-based; settings: for Zone of Inhibition: Bacillus megaterium, standards 30 μg/disk; for zone of inhibition at 100 µg/disc: Priestia megaterium, ATCC25918
[13] = system: Sarcina lutea [clinical isolates]; experiment: Disk diffusion test; type: cell-based; settings: for Zone of Inhibition: Sarcina lutea, standards 30 μg/disk; for zone of inhibition at 100 µg/disc: Micrococcus luteus
[14] = system: eight tested human tumor cell lines; design: method as in Wang et al. [2014]; settings: ref Wang et al. [2014]; cited from earlier work
[15] = system: castor oil‐induced diarrhea; experiment: Castor oil‐induced diarrhea test; type: in vivo, Swiss albino mice; settings: mice; for Number of diarrheal feces: mean
Description: as §1
The antidiarrheal potential of the compounds Chabamide I and Chingchengenamide A isolated from P. chaba was scrutinized employing the castor oil‐induced method, as delineated by Shoba and Thomas ([2001]) with slight adjustments. In this investigation, mice were judiciously randomized into four cohorts, each consisting of six subjects. Before experimentation, the mice underwent an overnight fasting period with unrestricted access to water.
Group I, designated as the control, received vehicle solutions comprising distilled water with 1% Tween‐80. […] Groups III and IV, representing the test cohorts, received isolated phytochemicals individually at oral dosages of 10 and 20 mg/kg body weight, respectively. An additional 0.5 mL of castor oil was applied to all subjects 1 h after the initial application of test samples. Subsequently, individual mice were placed in enclosures with floors lined with transparent paper.
Throughout the observational timeframe, diverse parameters were meticulously monitored, encompassing the initiation of diarrhea, quantification of wet stools in terms of number and weight, and the cumulative number and weight of fecal output. The observation persisted until 4 h […] the subsequent application of castor oil, with the calculated mean values being designated as the definitive results.

SMILES | Zone of Inhibition [2] [mm] | Zone of Inhibition [3] [mm] | Zone of Inhibition ([4]; standards 30 μg/disk) [mm] | Zone of Inhibition ([5]; standards 30 μg/disk) [mm] | Zone of Inhibition [6] [mm] | Zone of Inhibition ([7]; standards 30 μg/disk) [mm] | Zone of Inhibition [8] [mm] | Zone of Inhibition [9] [mm] | Zone of Inhibition [10] [mm] | Zone of Inhibition [11] [mm] | Zone of Inhibition [12] [mm] | Zone of Inhibition [13] [mm] | zone of inhibition at 100 µg/disc [2] [mm] | zone of inhibition at 100 µg/disc [3] [mm] | zone of inhibition at 100 µg/disc [4] [mm] | inhibitory effectiveness against human tumor cell lines [14] | zone of inhibition at 100 µg/disc [5] [mm] | zone of inhibition at 100 µg/disc [6] [mm] | % reduction of diarrhea ([15]; 10 mg/kg b.w., oral) [%] | Number of diarrheal feces ([15]; 10 mg/kg b.w., oral) | also measured
O=C(O)Cc1ccccc1Nc1c(Cl)cccc1Cl [Diclofenac Sodium, diclofenac sodium, reference compound] |  |  |  |  |  |  |  |  |  |  |  |  |  |  |  |  |  |  |  |  | % reduction of writhing ([1]; standard, 5 mg/kg b.w., 5 mg/kg): 80% and 77.55%; Number of writhing ([1]; standard, 5 mg/kg b.w.): 3.67
CC[C@H]1OC(=O)[C@H](C)[C@@H](O[C@H]2C[C@@](C)(OC)[C@@H](O)[C@H](C)O2)[C@H](C)[C@@H](O[C@@H]2O[C@H](C)C[C@H](N(C)C)[C@H]2O)[C@](C)(O)C[C@@H](C)CN(C)[C@H](C)[C@@H](O)[C@]1(C)O [Azithromycin, azithromycin, reference compound] | 39 | 40 | 35 | 38 | 32 | 42 | 32 | 38 | 39 | 33 | 33 | 37 |  |  |  |  |  |  |  |  | 
CC(C)CNC(=O)/C=C/C=C/CCc1ccc2c(c1)OCO2 [Chingchengenamide A] |  |  |  |  |  |  |  |  |  |  |  |  | 17 | 15 | 17 | inhibitory effectiveness against at least one of eight tested human tumor cell lines | 12 | 14 | 33.33 | 6.67 | % reduction of diarrhea ([15]; 20 mg/kg b.w., oral): 40%; Number of diarrheal feces ([15]; 20 mg/kg b.w., oral): 6; zone of inhibition at 100 µg/disc [7]: 21 mm; zone of inhibition at 100 µg/disc [8]: 13 mm; zone of inhibition at 100 µg/disc [9]: 15 mm; zone of inhibition at 100 µg/disc [10]: 15 mm; zone of inhibition at 100 µg/disc [11]: 16 mm; zone of inhibition at 100 µg/disc [12]: 14 mm; zone of inhibition at 100 µg/disc [13]: 16 mm; % reduction of writhing ([1]; 10 mg/kg b.w., p.o.): 34.69%; Number of writhing ([1]; 10 mg/kg b.w., p.o.): 10.67; % reduction of writhing ([1]; 20 mg/kg b.w., p.o.): 42.86%; Number of writhing ([1]; 20 mg/kg b.w., p.o.): 9.33
CN(C)C(=O)C(CCN1CCC(O)(c2ccc(Cl)cc2)CC1)(c1ccccc1)c1ccccc1 [Loperamide, loperamide, reference compound] |  |  |  |  |  |  |  |  |  |  |  |  |  |  |  |  |  |  |  |  | Number of diarrheal feces ([15]; standard, 5 mg/kg b.w.): 2
CC(C)CNC(=O)C1C(C(=O)N2CCCCC2)C=CC(c2ccc3c(c2)OCO3)C1c1ccc2c(c1)OCO2 (stereo not drawn) [Chabamide I] |  |  |  |  |  |  |  |  |  |  |  |  | 18 | 16 | 20 | inhibitory effectiveness against at least one of eight tested human tumor cell lines | 21 | 18 | 43.33 | 5.67 | Zone of Inhibition ([4]; 100 μg/disk): notable antimicrobial activity; Zone of Inhibition ([5]; 100 μg/disk): notable antimicrobial activity; % reduction of diarrhea ([15]; 20 mg/kg b.w., oral): 46.67%; Number of diarrheal feces ([15]; 20 mg/kg b.w., oral): 5.33; Zone of Inhibition ([7]; 100 μg/disk): notable antimicrobial activity; zone of inhibition at 100 µg/disc [7]: 21 mm; zone of inhibition at 100 µg/disc [8]: 11 mm; zone of inhibition at 100 µg/disc [9]: 18 mm; zone of inhibition at 100 µg/disc [10]: 18 mm; zone of inhibition at 100 µg/disc [11]: 15 mm; zone of inhibition at 100 µg/disc [12]: 15 mm; zone of inhibition at 100 µg/disc [13]: 16 mm; % reduction of writhing ([1]; 10 mg/kg b.w., p.o.): 40.82%; Number of writhing ([1]; 10 mg/kg b.w., p.o.): 9.67; % reduction of writhing ([1]; 20 mg/kg b.w., p.o.): 53.06%; Number of writhing ([1]; 20 mg/kg b.w., p.o.): 7.67
CC1(C)S[C@@H]2[C@H](NC(=O)[C@H](N)c3ccc(O)cc3)C(=O)N2[C@H]1C(=O)O [Amoxicillin, amoxicillin, reference compound] | 37 | 35 | 33 | 31 | 32 | 38 | 26 | 30 | 36 | 28 | 29 | 32 |  |  |  |  |  |  |  |  | 
